Measurements: PubChem BioAssay AID1963451 (Molecular Pharmacology Branch, DTP, NCI, 2024)

System: 521955-158-R6-J3-PDC complex spheroid growth, % test/control
Experiment: Anticancer human tumor 521955-158-R6-J3-PDC patient-derived pancreatic carcinoma cell line growth inhibition [Asc]
Conditions: for IC50: curve of first compound; for viability, T/C: stronger effect = lower value; active = viability on the fitted dose curve at most 10% of control; inactive = the rest
In short: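 Concentration series start at each agent's clinical Cmax, or at 10 microM when none is established, and drop in half-log steps; agents are applied alone or together to complex spheroids built with HUVEC and hMSC.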
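Also: spheroids exposed to compounds for 7 days.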
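For viability, T/C in this document: 100% = DMSO vehicle control wells.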

C=CC(=O)N1CCN(c2nc(=O)n(-c3c(C)ccnc3C(C)C)c3nc(-c4c(O)cccc4F)c(F)cc23)C(C)C1 (configuration not stated) + Cc1c(S(C)(=O)=O)c(-c2cc(F)cc(N3CCN(c4ccc(NS(=O)(=O)c5ccc(NC(CCN6CCC(C(=O)OCCCP(=O)(O)O)CC6)CSc6ccccc6)c(S(=O)(=O)C(F)(F)F)c5)cc4)CC3)c2)c(-c2ccc(Cl)cc2)n1C(C)C
> 10 µM: IC50 (second compound 0.0316 µM) | IC50 (second compound 0.1 µM)
< 0.0316 µM: IC50 (second compound 0.316 µM) | IC50 (second compound 1 µM) | IC50 (second compound 3.16 µM) | IC50 (second compound 10 µM)
inactive: viability, T/C (second compound 0.0316 µM, first compound 0.0316 µM) 84.4% | viability, T/C (second compound 0.0316 µM, first compound 0.1 µM) 84% | viability, T/C (second compound 0.0316 µM, first compound 0.316 µM) 84.6% | viability, T/C (second compound 0.0316 µM, first compound 1 µM) 80.3% | viability, T/C (second compound 0.0316 µM, first compound 3.16 µM) 79.7% | viability, T/C (second compound 0.0316 µM, first compound 10 µM) 79.7% | viability, T/C (second compound 0.1 µM, first compound 0.0316 µM) 72.2% | viability, T/C (second compound 0.1 µM, first compound 0.1 µM) 72.3% | viability, T/C (second compound 0.1 µM, first compound 0.316 µM) 67.6% | viability, T/C (second compound 0.1 µM, first compound 1 µM) 68.4% | viability, T/C (second compound 0.1 µM, first compound 3.16 µM) 59.6% | viability, T/C (second compound 0.1 µM, first compound 10 µM) 50.7% | viability, T/C (second compound 0.316 µM, first compound 0.0316 µM) 47.8% | viability, T/C (second compound 0.316 µM, first compound 0.1 µM) 48.4% | viability, T/C (second compound 0.316 µM, first compound 0.316 µM) 42.5% | viability, T/C (second compound 0.316 µM, first compound 1 µM) 46.3% | viability, T/C (second compound 0.316 µM, first compound 3.16 µM) 38.3% | viability, T/C (second compound 0.316 µM, first compound 10 µM) 29.2% | viability, T/C (second compound 1 µM, first compound 0.0316 µM) 45.6% | viability, T/C (second compound 1 µM, first compound 0.1 µM) 36.8% | viability, T/C (second compound 1 µM, first compound 0.316 µM) 41.8% | viability, T/C (second compound 1 µM, first compound 1 µM) 33.7% | viability, T/C (second compound 1 µM, first compound 3.16 µM) 23.6% | viability, T/C (second compound 1 µM, first compound 10 µM) 19.8% | viability, T/C (second compound 3.16 µM, first compound 0.0316 µM) 23.1% | viability, T/C (second compound 3.16 µM, first compound 0.1 µM) 22.8% | viability, T/C (second compound 3.16 µM, first compound 0.316 µM) 17.4% | viability, T/C (second compound 3.16 µM, first compound 1 µM) 15.6% | viability, T/C (second compound 3.16 µM, first compound 3.16 µM) 12.6% | viability, T/C (second compound 10 µM, first compound 0.0316 µM) 12.7% | viability, T/C (second compound 10 µM, first compound 0.1 µM) 9.59% | viability, T/C (second compound 10 µM, first compound 0.316 µM) 12.5% | viability, T/C (second compound 10 µM, first compound 1 µM) 9.66% | viability, T/C (second compound 10 µM, first compound 3.16 µM) 23.2% | viability, T/C (second compound 10 µM, first compound 10 µM) 8.51%
active: viability, T/C (second compound 3.16 µM, first compound 10 µM) 7.39%
